# According to patent US6617350B2, “Inhibitors of aspartyl protease” (priority 1999, dated 2003):
# Read-outs that look alike come from different tables or passages of the source.
# Legend:
# HIV-1 (strain IIIB) = assay: microbe, parasite or virus in culture; type: cell-based; conditions: read-out: IC50
# HIV-1 protease = HIV-1 protease (Human immunodeficiency virus type 1 group M subtype B, UniProt P04585); assay: biochemical; conditions: Table 12; HIV-1 protease; read-out: Ki
# [1] = Human immunodeficiency virus 1, IIIB, MT4, Table 12, anti-viral potency in MT-4 cells
# [2] = Table 12, anti-viral potency in MT-4 cells
SMILES,IC50 (HIV-1 (strain IIIB); [1]) [nM],Ki (HIV-1 protease) [nM],"IC50 (HIV-1 (strain IIIB); Human immunodeficiency virus 1, IIIB, MT4, Table 13, MT-4 cell based assay, class symbol) [nM]",IC50 (HIV-1 (strain IIIB); [2]) [nM],IC50 (HIV-1 (strain IIIB)) [nM]
"CCC(CCC#N)CN(CC(O)C(Cc1ccccc1)NC(=O)OC1CCOC1)S(=O)(=O)c1ccc(OC)cc1 [Compound 9, (3S)-Tetrahydro-3-furanyl N-((1S,2R)-1-benzyl-3-[(2RS)-4-cyano-2-ethyl][(4-methoxyphenyl)sulfonyl]amino-2-hydroxypropyl)carbamate]",> 1000,< 1,,,
"CC(C)(CCC#N)CN(CC(O)[C@H](Cc1ccccc1)NC(=O)OC1COC2OCCC12)S(=O)(=O)c1cccc(N)c1 (stereo partly drawn) [Compound 10, (3S,3aR,6aS)-Hexahydrofuro[2,3-b]furan-3-yl N-((1S,2R)-3-[(3-aminophenyl)sulfonyl](4-cyano-2,2-dimethylbutyl)-amino-1-benzyl-2-hydroxypropyl)carbamate]",≤ 100,< 1,,,
"COc1ccc(S(=O)(=O)N(CC(O)C(Cc2ccccc2)NC(=O)OC2COC3OCCC23)CC(C)(C)CCC#N)cc1 [Compound 11, (3S,3aR,6aS)-Hexahydrofuro[2,3-b]furan-3-yl N-((1S,2R)-1-benzyl-3-(4-cyano-2,2-dimethylbutyl)[(4-methoxyphenyl)sulfonyl]amino-2-hydroxypropyl)carbamate]",≤ 100,< 1,,,
"CNc1cccc(S(=O)(=O)N(C[C@@H](O)[C@H](Cc2ccccc2)NC(=O)O[C@H]2CO[C@H]3OCC[C@H]32)CC(C)(C)CCC#N)c1 [Compound 12, (3R,3aS,6aR)-Hexahydrofuro[2,3-b]furan-3-yl N-[(1S,2R)-1-benzyl-3-((4-cyano-2,2-dimethylbutyl)[3-(methylamino)-phenyl]sulfonylamino)-2-hydroxypropyl]carbamate]",≤ 100,< 1,1 to 10,,
"CC(C)(CCC#N)CN(CC(O)[C@H](Cc1ccccc1)NC(=O)OC1COC2OCCC12)S(=O)(=O)c1cccc(N)c1 (stereo partly drawn) [Compound 16, (3R,3aS,6aR)-Hexahydrofuro[2,3-b]furan-3-yl N-((1S,2R)-3-[(3-aminophenyl)sulfonyl](4-cyano-2,2-dimethylbutyl)amino-1-benzyl-2-hydroxypropyl)carbamate]",,< 1,,≤ 100,
"CCC(CC)(CCC#N)CN(C[C@@H](O)[C@H](Cc1ccccc1)NC(=O)O[C@H]1CCOC1)S(=O)(=O)c1ccc(OC)cc1 [Compound 17, (3S)-Tetrahydro-3-furanyl N-((1S,2R)-1-benzyl-3-(4-cyano-2,2-diethylbutyl)[(4-methoxyphenyl)sulfonyl]amino-2-hydroxypropyl)carbamate]",,< 1,,,100 to 500
"COc1ccc(S(=O)(=O)N(C[C@@H](O)[C@H](Cc2ccccc2)NC(=O)O[C@H]2CCOC2)CC(C)(C)CCCC#N)cc1 [Compound 18, (3S)-Tetrahydro-3-furanyl N-((1S,2R)-1-benzyl-3-(5-cyano-2,2-dimethylpentyl)[(4-methoxyphenyl)sulfonyl]amino-2-hydroxypropyl)carbamate]",100 to 500,< 1,,,
"COc1ccc(S(=O)(=O)N(C[C@@H](O)[C@H](Cc2ccccc2)NC(=O)OC2COCOC2)CC(C)(C)CCC#N)cc1 [Compound 19, {(1S,2R)-1-Benzyl-3-[(4-cyano-2,2-dimethyl-butyl)-(4-methoxy-benzenesulfonyl)-amino]-2-hydroxy-propyl}-carbamic acid[1,3]dioxan-5-yl ester]",100 to 500,< 1,,,
"COc1ccc(S(=O)(=O)N(C[C@@H](O)[C@H](Cc2ccccc2)NC(=O)C(C)CS(C)(=O)=O)CC(C)(C)CCC#N)cc1 (stereo partly drawn) [Compound 22, 1N-(3-Methylsulfonylisobutyryl)-(1S,2R)-1-benzyl-3-(4-cyano-2,2-dimethylbutyl)[4-methoxyphenylsulfonyl]amino-2-hydroxypropyl amine]",,< 1,,100 to 500,
"CC(C)(CCC#N)CN(C[C@@H](O)[C@H](Cc1ccccc1)NC(=O)O[C@H]1CO[C@H]2OCC[C@H]21)S(=O)(=O)c1ccc2c(c1)OCO2 [Compound 25, {(1S,2R)-3-[(Benzo[1,3]dioxole-5-sulfonyl)-(4-cyano-2,2-dimethyl-butyl)-amino]-1-benzyl-2-hydroxy-propyl}-carbamic acid (3R, 3aS, 6aR)hexahydro-furo[2,3-b]furan-3-yl ester]",≤ 100,< 1,,,
"COc1ccc(S(=O)(=O)N(CCCCC#N)C[C@@H](O)[C@H](Cc2ccccc2)NC(=O)O[C@H]2CCOC2)cc1 [Compound 26, (3S)-Tetrahydro-3-furanyl N-((1S,2R)-1-benzyl-3-(4-cyanobutyl)[(4-methoxyphenyl)sulfonyl]amino-2-hydroxypropyl)carbamate]",100 to 500,< 1,,,
"CC(C)(CCC#N)CN(C[C@@H](O)[C@H](Cc1ccccc1)NC(=O)OC1COCOC1)C(=O)OCc1ccccc1 [Compound 28, (4-Cyano-2,2-dimethyl-butyl)-[(2R,3S)-3-([1,3]dioxan-5-yloxycarbonylamino)-2-hydroxy-4-phenyl-butyl]-carbamic acid benzyl ester]",100 to 500,< 1,,,
"CC(=O)Nc1ccc(S(=O)(=O)N(C[C@@H](O)[C@H](Cc2ccccc2)NC(=O)O[C@H]2CO[C@H]3OCC[C@H]32)CC(C)(C)CCC#N)cc1 [Compound 29, {(1S,2R)-3-[(4-Acetylamino-benzenesulfonyl)-(4-cyano-2,2-dimethyl-butyl)-amino]-1-benzyl-2-hydroxy-propyl}-carbamic acid (3R,3aS,6aR)hexahydro-furo[2,3-b]furan-3-yl ester]",100 to 500,< 1,,,
"CC(=O)Nc1cc(S(=O)(=O)N(C[C@@H](O)[C@H](Cc2ccccc2)NC(=O)O[C@H]2CO[C@H]3OCC[C@H]32)CC(C)(C)CCC#N)ccc1F [Compound 30, {(1S,2R)-3-[(3-Acetylamino-4-fluoro-benzenesulfonyl)-(4-cyano-2,2-dimethyl-butyl)-amino]-1-benzyl-2-hydroxy-propyl}-carbamic acid (3R,3aS,6aR)hexahydro-furo[2,3-b]furan-3-yl ester]",≤ 100,< 1,,,
"CC(=O)Nc1cccc(S(=O)(=O)N(C[C@@H](O)[C@H](Cc2ccccc2)NC(=O)O[C@H]2CO[C@H]3OCC[C@H]32)CC(C)(C)CCC#N)c1 [Compound 31, {(1S,2R)-3-[(3-Acetylamino-benzenesulfonyl)-(4-cyano-2,2-dimethyl-butyl)-amino]-1-benzyl-2-hydroxy-propyl}-carbamic acid (3R,3aS,6aR)hexahydro-furo[2,3-b]furan-3-yl ester]",≤ 100,< 1,,,
"CC(C)(CCC#N)CN(CC(O)C(Cc1ccccc1)NC(=O)OC1COC2OCCC12)S(=O)(=O)c1ccc(OCc2ccccc2)cc1 [Compound 32, {(1S,2R)-3-[(4-benzyloxybenzenesulfonyl)-(4-cyano-2,2-dimethyl-butyl)-amino]-1-benzyl-2-hydroxy-propyl}-carbamic acid (2R,3aS,6aR)hexahydro-furo[2,3-b]furan-3-yl ester]",100 to 500,< 1,,,
"CC(C)(CCC#N)CN(C[C@@H](O)[C@H](Cc1ccccc1)NC(=O)OC1COCOC1)S(=O)(=O)c1ccc(OCc2ccccc2)cc1 [Compound 33, {(1S,2R)-1-Benzyl-3-[(4-cyano-2,2-dimethyl-butyl)-(4-benzyloxybenzenesulfonyl)-amino]-2-hydroxy-propyl}-carbamic acid[1,3]dioxan-5-yl ester]",500 to 1000,10 to 100,,,
